Here are results for 18 molecules from publication PMC4128814, “A High Throughput Screen Identifies Potent and Selective Inhibitors to Human Epithelial 15-Lipoxygenase-2” (PLoS ONE, 2014).

The target in assay [1] is T1, 15-LOX-2 (Homo sapiens, UniProt O15296).
T1 construct: His6 (N); made in house
T1 sequence (O15296 1-676): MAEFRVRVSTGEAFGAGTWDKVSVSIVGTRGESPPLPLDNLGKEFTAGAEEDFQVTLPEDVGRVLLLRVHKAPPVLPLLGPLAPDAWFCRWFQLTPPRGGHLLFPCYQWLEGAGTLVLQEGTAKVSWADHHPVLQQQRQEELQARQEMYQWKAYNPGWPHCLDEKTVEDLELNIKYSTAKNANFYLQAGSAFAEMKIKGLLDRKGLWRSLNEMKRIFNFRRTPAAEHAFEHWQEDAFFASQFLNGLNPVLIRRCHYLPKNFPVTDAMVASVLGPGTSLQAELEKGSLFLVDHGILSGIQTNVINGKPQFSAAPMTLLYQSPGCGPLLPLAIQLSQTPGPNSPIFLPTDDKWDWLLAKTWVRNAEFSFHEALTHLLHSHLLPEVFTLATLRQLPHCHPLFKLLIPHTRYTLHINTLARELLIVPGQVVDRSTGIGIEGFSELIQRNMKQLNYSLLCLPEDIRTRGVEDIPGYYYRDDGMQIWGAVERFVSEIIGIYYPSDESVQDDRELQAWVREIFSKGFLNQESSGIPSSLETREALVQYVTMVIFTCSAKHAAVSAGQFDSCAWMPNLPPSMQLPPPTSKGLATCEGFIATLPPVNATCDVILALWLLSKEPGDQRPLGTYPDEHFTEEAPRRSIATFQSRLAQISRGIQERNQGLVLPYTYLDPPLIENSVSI
In words: Lipoxygenase UV-Vis assay, 15-LOX-2. The conditions noted are these: for inhibition at 25 µM: read-out: % Inhibition at 25 μM; for potency relative to parent compound: 15-LOX-2. Type of assay: biochemical. As to the method:
The reactions were initiated by adding 200 nM 15-LOX-2, 30 nM 12-LOX, 40 nM 15-LOX-1, or approximately 100–300 nM (5–10 µL) of 5-LOX crude extract to a cuvette with 2 mL reaction buffer, constantly stirred using a magnetic stir bar at room temperature (22°C). Reaction buffers used for various LOX isozymes were as follows: 25 mM HEPES (pH 7.3), 0.3 mM CaCl2, 0.1 mM EDTA, 0.2 mM ATP, 0.01% Triton X-100, 10 µM AA for the crude, ammonium sulfate precipitated 5-LOX; and 25 mM HEPES (pH 7.5), 0.01% Triton X-100, 10 µM AA for 15-LOX-2, 15-LOX-1, and 12-LOX. The substrate concentration was quantitatively determined by allowing the enzymatic reaction to go to completion in the presence of 15-LOX-2. […] The data were then plotted against inhibitor concentration, followed by a hyperbolic saturation curve fit (assuming total enzyme concentration [E]≪IC50). […] All inhibitors were stored at −20°C in DMSO. NDGA was utilized as positive control for the selectivity assays for the various LOX isozymes.
Once the two lead compounds were identified, a limited series of related compounds were identified and screened to investigate structure/activity relationships (Figure 3). […] We are currently exploring this line of inquiry.

Assay [2] has as its target T1, 15-LOX-2. The conditions noted are these: control molecules known not to inhibit 15-LOX-2; cited from earlier work.
[3] abbreviates: 25 µM inhibitor, 15-LOX-2, 10 µM AA.

Read-outs that look alike come from different tables or passages of the source. Some results are limits rather than exact numbers.

As for `O=C(c1nnc(-c2ccc(Cl)cc2)o1)C1CCCC1` [MLS001007221], the inhibition (commonly the percentage by which the read-out fell short of the control) at 25 µM at 15-LOX-2 [1] (setting [3]) was found to be 66%. Moreover, the “potency relative to parent compound” value on 15-LOX-2 [1] was “comparable activity”. The IC50 (commonly the concentration at which inhibition is half-maximal) at 15-LOX-2 [1] (read-out: 15-LOX-2 IC50) was found to be 1.1 µM.
For `CC(=O)NC(c1cccs1)c1cc(Br)c2cccnc2c1O` (stereo not shown) [ML127], on 15-LOX-2 [2], the IC50 was over 100 µM.
Turning to `CCC1CCC(c2nnc(-c3ccc([N+](=O)[O-])cc3)o2)CC1` (stereo not shown) [MLS000723362], the inhibition at 25 µM at 15-LOX-2 [1] (setting [3]) was determined as 5%. Also, on 15-LOX-2 [1] (read-out: 15-LOX-2 IC50), the 50% inhibitory concentration (IC50) was over 100 µM.
As for `CCCc1nnc(-c2ccc(OC)cc2)o1` [MLS000756111], the inhibition at 25 µM at 15-LOX-2 [1] (setting [3]) turned out to be 0%. The concentration for half-maximal inhibition (IC50) at 15-LOX-2 [1] (read-out: 15-LOX-2 IC50) was over 100 µM.
In the same order, the values of `Clc1ccccc1CSc1ncn(-c2ccccc2)n1` [MLS000550113] are 53% and 9 µM.
With `Cc1ccc(NC(=O)CSc2ncn(-c3ccccc3)n2)cc1C` [MLS000594570], the inhibition at 25 µM at 15-LOX-2 [1] (setting [3]) turned out to be 0%. On 15-LOX-2 [1] (read-out: 15-LOX-2 IC50), the IC50 was over 100 µM.
On the same counts, the results for `Clc1ccc(-c2nnc(C3CC3)o2)cc1` [MLS000859524] are 4% and over 100 µM.
For `c1ccc(CSc2ncn(-c3ccccc3)n2)cc1` [MLS000108825], the inhibition at 25 µM on 15-LOX-2 [1] (setting [3]) is 56%. For the same molecule, the IC50 on 15-LOX-2 [1] (read-out: 15-LOX-2 IC50) is 6.4 µM.
On to `O=[N+]([O-])c1cc(-c2nnc(C34CC5CC(CC(C5)C3)C4)o2)cc([N+](=O)[O-])c1` [MLS000544312], for which, at 15-LOX-2 [1], the IC50 is over 100 µM and the inhibition at 25 µM came to 0%.
In the case of `O=C(c1nnc(-c2ccccc2)o1)C1CC1` [MLS001033918], the inhibition at 25 µM at 15-LOX-2 [1] (setting [3]) is 3%. Also, the IC50 on 15-LOX-2 [1] (read-out: 15-LOX-2 IC50) is over 100 µM.
For the molecule `c1cncc(-c2nnc(C3CCCCC3)o2)c1` [MLS000033229], the inhibition at 25 µM at 15-LOX-2 [1] (setting [3]) came to 4%. On 15-LOX-2 [1] (read-out: 15-LOX-2 IC50), the IC50 is over 100 µM.
As for `Clc1cccc(CSc2ncn(-c3ccccc3)n2)c1` [MLS000594591], at 15-LOX-2 [1] (setting [3]), the inhibition at 25 µM worked out at 65%. On 15-LOX-2 [1] (read-out: 15-LOX-2 IC50), the IC50 came to 5.4 µM.
On the same counts, the results for `O=C(CCc1nnc(-c2ccccc2)o1)c1ccc(Cl)cc1` [MLS001019001] are 6% and over 100 µM.
Take `Clc1ccc(-c2nnc(CCc3ccccc3)o2)c(Cl)c1` [MLS000325223]: the inhibition at 25 µM on 15-LOX-2 [1] (setting [3]) came to 4%. In addition, the IC50 on 15-LOX-2 [1] (read-out: 15-LOX-2 IC50) was over 100 µM.
In the case of `O=[N+]([O-])c1cccc(-c2nnc(C34CC5CC(CC(C5)C3)C4)o2)c1` [MLS000585389], the inhibition at 25 µM on 15-LOX-2 [1] (setting [3]) amounted to 14%. Further, the IC50 at 15-LOX-2 [1] (read-out: 15-LOX-2 IC50) is over 100 µM.
As for `CC(=O)Nc1ccc(C(=O)CSc2ncn(-c3ccccc3)n2)cc1` [MLS000108839], the inhibition at 25 µM on 15-LOX-2 [1] (setting [3]) is 0%. Moreover, on 15-LOX-2 [1] (read-out: 15-LOX-2 IC50), the IC50 is over 100 µM.
Take `Clc1ccc(CSc2ncn(-c3ccccc3)n2)cc1` [MLS000550104]: on 15-LOX-2 [1] (setting [3]), the inhibition at 25 µM came to 94%. Also, the “potency relative to parent compound” value on 15-LOX-2 [1] was “approximately 4 fold”. Besides, the IC50 on 15-LOX-2 [1] (read-out: 15-LOX-2 IC50) was found to be 0.74 µM.
For the molecule `CCC1CCC(c2nnc(-c3ccc(Br)cc3)o2)CC1` (stereo not shown) [MLS000578382], the inhibition at 25 µM on 15-LOX-2 [1] (setting [3]) was found to be 28%. In addition, the IC50 on 15-LOX-2 [1] (read-out: 15-LOX-2 IC50) is over 50 µM.
